Experimental data: ChEMBL document CHEMBL1150761, “Additional biologically active constituents of the Chinese tallow tree (Sapium sebiferum)” (1988)
Converted amounts (≈) assume the structure as drawn.

The compounds below were run on P388 (assay: Cytotoxicity against mouse P388 cells). Details: read-out: ED50 (the source's name).
Format: functional

Question: Which EC50 does the source give for `CC1(C)CC(O)C[C@@]2(C)OC(=O)C=C12` (stereo partly specified) here?
Answer: Its EC50 is 15 µg/mL (≈ 76.4 µM).

Question: With `O=c1c(O[C@@H]2O[C@H](CO)[C@@H](O)[C@H](O)[C@H]2O)c(-c2ccc(O)cc2)oc2cc(O)cc(O)c12` [ASTRAGALIN] as the compound, how does the EC50 read?
Answer: Its EC50 is 8.2 µg/mL (≈ 18.3 µM).

Question: For `O=C(O)c1cc(O)c(O)c(O)c1` [GALLIC ACID], which EC50 is on record?
Answer: The EC50 was 0.7 µg/mL (≈ 4.11 µM).

Question: `O=c1c(O)c(-c2ccc(O)cc2)oc2cc(O)cc(O)c12` [KAEMPFEROL] was tested. Which EC50 did it give?
Answer: Its EC50 is 6.7 µg/mL (≈ 23.4 µM).

Question: For `O=c1c(O)c(-c2ccc(O)c(O)c2)oc2cc(O)cc(O)c12` [QUERCETIN], which EC50 is on record?
Answer: The EC50 was 40 µg/mL (≈ 132 µM).

Question: For `CC[C@H](CC[C@@H](C)[C@H]1CC[C@H]2[C@@H]3CC=C4C[C@@H](O[C@@H]5O[C@H](CO)[C@@H](O)[C@H](O)[C@H]5O)CC[C@]4(C)[C@H]3CC[C@]12C)C(C)C` [SITOGLUSIDE], which EC50 is on record?
Answer: Its EC50 is 53 µg/mL (≈ 91.9 µM).
